Experiments:
[1] = biological target: T1, cytokinin receptor AHK3 (Arabidopsis thaliana, UniProt Q9C5U1); conditions: TM182-AHK3, DOLU+Glu agar, 10 μM, 30° C. for 30 hours
T1 sequence (Q9C5U1 1-1036): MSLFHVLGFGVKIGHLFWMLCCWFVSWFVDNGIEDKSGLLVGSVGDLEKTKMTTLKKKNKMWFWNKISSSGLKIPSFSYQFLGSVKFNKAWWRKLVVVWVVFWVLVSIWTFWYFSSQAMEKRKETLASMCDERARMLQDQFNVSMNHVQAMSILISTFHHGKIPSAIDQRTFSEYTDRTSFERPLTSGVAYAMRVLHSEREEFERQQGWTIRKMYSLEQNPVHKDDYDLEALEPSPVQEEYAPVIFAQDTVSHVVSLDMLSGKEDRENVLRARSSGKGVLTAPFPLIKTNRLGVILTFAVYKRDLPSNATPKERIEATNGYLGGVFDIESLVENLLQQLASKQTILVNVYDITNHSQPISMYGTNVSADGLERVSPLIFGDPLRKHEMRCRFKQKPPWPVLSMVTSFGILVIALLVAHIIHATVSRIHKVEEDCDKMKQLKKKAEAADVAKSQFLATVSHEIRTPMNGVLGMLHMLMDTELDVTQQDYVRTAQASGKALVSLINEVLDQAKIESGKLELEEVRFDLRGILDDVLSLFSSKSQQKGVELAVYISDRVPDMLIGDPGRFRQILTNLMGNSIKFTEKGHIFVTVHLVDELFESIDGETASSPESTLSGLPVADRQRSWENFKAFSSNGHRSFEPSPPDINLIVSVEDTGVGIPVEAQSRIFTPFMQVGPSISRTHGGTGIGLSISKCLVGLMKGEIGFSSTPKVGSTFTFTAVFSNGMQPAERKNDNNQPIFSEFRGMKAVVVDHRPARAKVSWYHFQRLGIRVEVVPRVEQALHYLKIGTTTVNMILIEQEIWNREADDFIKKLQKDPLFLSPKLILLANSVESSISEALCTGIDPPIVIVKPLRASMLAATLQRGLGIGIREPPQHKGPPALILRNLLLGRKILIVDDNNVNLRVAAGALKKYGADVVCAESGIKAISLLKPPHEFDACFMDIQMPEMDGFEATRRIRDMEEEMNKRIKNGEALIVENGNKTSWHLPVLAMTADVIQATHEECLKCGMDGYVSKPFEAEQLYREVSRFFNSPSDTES
Procedure: (§1) A culture solution 10 μl (about 800 clones of yeast) of the transformed cells TM182-CRE1, TM182-AHK2, TM182-AHK2Δ and TM182-AHK3 produced by the example 12 was spotted on DOLU+Glu agar media containing 10 μM of trans-zeatin and cultured at 30° C. for 30 hours. After incubation, the growth state of the transformed cells was observed and photographed by a digital camera.

[2] = biological target: T2, cytokinin receptor AHK2Δ (Arabidopsis thaliana, UniProt Q9C5U2); conditions: TM182-AHK2Δ, DOLU+Glu agar, 30° C. for 30 hours
T2 sequence (Q9C5U2 196-1176): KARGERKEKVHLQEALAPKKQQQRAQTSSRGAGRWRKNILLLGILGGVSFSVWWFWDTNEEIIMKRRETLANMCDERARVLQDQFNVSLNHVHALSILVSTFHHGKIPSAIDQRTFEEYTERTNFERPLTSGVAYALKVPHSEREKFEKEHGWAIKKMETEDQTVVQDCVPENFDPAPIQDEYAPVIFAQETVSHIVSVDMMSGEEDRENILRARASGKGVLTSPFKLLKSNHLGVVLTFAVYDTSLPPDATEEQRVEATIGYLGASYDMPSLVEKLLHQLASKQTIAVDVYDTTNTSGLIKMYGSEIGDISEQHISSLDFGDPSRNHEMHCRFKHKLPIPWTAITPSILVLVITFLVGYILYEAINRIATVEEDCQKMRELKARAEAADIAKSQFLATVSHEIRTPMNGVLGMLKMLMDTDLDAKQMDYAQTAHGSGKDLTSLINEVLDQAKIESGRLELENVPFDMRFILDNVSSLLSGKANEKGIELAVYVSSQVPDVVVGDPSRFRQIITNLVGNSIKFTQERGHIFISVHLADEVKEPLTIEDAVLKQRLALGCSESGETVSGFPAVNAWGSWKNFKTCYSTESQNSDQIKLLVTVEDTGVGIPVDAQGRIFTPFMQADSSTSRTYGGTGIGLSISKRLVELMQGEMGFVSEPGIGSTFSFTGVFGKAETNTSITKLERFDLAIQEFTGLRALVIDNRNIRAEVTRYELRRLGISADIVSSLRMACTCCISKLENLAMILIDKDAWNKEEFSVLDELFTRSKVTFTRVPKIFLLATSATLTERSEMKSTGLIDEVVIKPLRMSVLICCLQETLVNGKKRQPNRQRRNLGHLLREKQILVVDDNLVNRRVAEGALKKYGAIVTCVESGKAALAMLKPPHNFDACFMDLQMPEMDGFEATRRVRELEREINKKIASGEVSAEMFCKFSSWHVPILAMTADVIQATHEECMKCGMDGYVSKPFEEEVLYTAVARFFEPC
Procedure: as §1
Culture solutions of the transformed cells TM182-CRE1, TM182-AHK2Δ and TM182-AHK2 produced by the reference example 1 were spotted on DOLU+Glu agar media containing cytokinin in a variety of concentrations (1 nM, 10 nM, 100 nM, 1 μM, 10 μM, 100 μM) and cultured at 30° C. for 30 hours. After incubation, the growth state of the transformed cells was observed and photographed by a digital camera.

## C/C(=C\CNc1ncnc2nc[nH]c12)CO [trans-zeatin]
[1]
  growth state of the transformed cells as compared with media containing no trans-zeatin: high growth
[2]; 1 nM to 100 μM tested
  lowest observed supply concentration in which the transformed cells could be grown: 100 nM
[2]; 10 μM
  growth state of the transformed cells as compared with media containing no trans-zeatin: high growth

From US20050164370A1 (priority 2003, published 2005)
